Tests used:
PDIA3 [1] = target: T1, PDIA3 (Homo sapiens, UniProt P30101); test: Disulfide reductase activity with DiE-GSSG fluorogenic probe; format: biochemical; conditions: DiE-GSSG substrate; for Inhibition of disulfide reductase (redox) activity: 20 μM flavonoid (Figure 7)
T1 construct: made in house; host or cells: E. coli BL21 (vector pET21)
T1 sequence (P30101 25-505): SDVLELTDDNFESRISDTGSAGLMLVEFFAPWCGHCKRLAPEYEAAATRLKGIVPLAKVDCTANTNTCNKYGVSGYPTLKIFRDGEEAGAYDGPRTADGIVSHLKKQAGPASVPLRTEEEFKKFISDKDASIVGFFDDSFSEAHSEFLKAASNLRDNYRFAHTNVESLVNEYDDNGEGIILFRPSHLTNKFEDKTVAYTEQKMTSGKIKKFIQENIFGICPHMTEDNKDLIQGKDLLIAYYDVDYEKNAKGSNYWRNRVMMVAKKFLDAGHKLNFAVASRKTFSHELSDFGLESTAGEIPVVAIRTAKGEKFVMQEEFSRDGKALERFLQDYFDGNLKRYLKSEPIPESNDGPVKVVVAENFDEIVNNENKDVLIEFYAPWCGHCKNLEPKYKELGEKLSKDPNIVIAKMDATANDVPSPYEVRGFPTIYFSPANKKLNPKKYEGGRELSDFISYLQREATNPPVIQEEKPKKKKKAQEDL
Method: Disulfide reductase activity of ERp57 was monitored by sensitive fluorescent assay using dieosin glutathione disulfide (DiE-GSSG) as fluorogenic probe. DiE-GSSG was synthesized by the reaction of eosin isothiocyanate with oxidized glutathione (GSSG) according to the method of Raturi and Mutus with some modifications. DiE-GSSG concentration was determined spectrophotometrically (ℇ 525 = 88,000 M^-1 cm^−1). Disulfide reductase activity was assayed in a reaction buffer containing 2 mM EDTA, 150 nM DiE-GSSG, and 5 μM DTT in PBS. A 20 μl aliquot of a stock solution of PDIA3 (1 μM) was added to the reaction mixture and DiE-GSSG reduction was monitored at 545 nm with excitation at 520 nm, at 25°C with continuous stirring. Reductase activity was calculated as the initial velocity in fluorescence increase. To test the effect of flavonoids on PDIA3 activity, the protein stock solution was previously incubated for 15 minutes at room temperature with different concentrations of each flavonoid and then a 20 μl aliquot subjected to assay in a reaction buffer containing the same concentration of the flavonoid.
Fluorescence quenching constant (K SV) values were given as means ± standard deviation and values of disulfide reductase activity were expressed in % of control sample ± relative standard deviation. All measurements were performed at least three times. Dunnett's test was used to compare the obtained reductase activity data with the activity of the untreated protein and a p value of <0.01 was considered as statistically significant.

PDIA3 [2] = target: T1, PDIA3; test: DNA binding activity by EMSA; format: biochemical; conditions: flavonoid 0 to 50 μM
Method: EMSA assay was performed using a 79-bp […] obtained by PCR as previously described. Amplified DNA was end-labeled by using 5-fluorescein-modified primers. 10 ng of DNA fragment was incubated with 1 μg of PDIA3 or a′ domain, in presence of increasing concentration of flavonoids (from 0 to 50 μM). Controls were performed using DNA alone and in the presence of each flavonoid. All tests were performed in 20 μl mixtures containing 20 mM Tris-HCl, pH 7.5, 50 mM NaCl, and 10% (v/v) glycerol. Samples were incubated for 1 hour at 25°C and then resolved on 5% polyacrylamide gels in 0,25% TBE buffer (22.5 mM Tris-borate, 5 mM EDTA, pH 8.3) at 150 V. Gel images were recorded using a ChemiDoc MP Imaging System (BioRad) equipped with an epi-blue excitation lamp and a 520 nm emission filter.

PDIA3 [3] = target: T1, PDIA3; test: Differential scanning fluorimetry (thermal stability, SYPRO Orange); format: binding; conditions: flavonoid up to 50 μM, mainly at the highest concentration
Method: Protein stability was tested by the fluorescence-based thermal stability assay or differential scanning fluorimetry (DSF) developed by Pantoliano and coworkers. DSF records the fluorescence emission signal from the binding of a dye (SYPRO orange) to the exposed hydrophobic patches upon protein unfolding. Fluorescence measurements were performed using a CFX96 Connect RT-PCR instrument (BioRad). 18 μl aliquots of protein solution (1 μM), freshly diluted in Tris Buffered saline (50 mM TrisHCl, pH 8.0, 150 mM NaCl) containing 0.1 mM DTT, 0.2 mM EDTA, and 1 : 1000 dilution of SYPRO Orange (50 mM stock solution in DMSO), were distributed in a 96-well plate. Sample wells were addition of increasing concentration (up to 50 μM) of individual flavonoid by adding 2 μl of 10-fold concentrated stock solutions freshly prepared. As control, the protein solution was added with 2 μl of the dilution buffer. A melting point analysis was recorded increasing the temperature from 20 to 95°C with an increment of 0.5°C and reading, at each temperature, the fluorescence in fluorescence resonance energy transfer mode (FRET). Each measure was the average of three sample wells reading and each DSF experiment was repeated at least three times. To calculate T m values, DSF data from the melting curve were exported and fitted to Boltzman equation using GraphPad software. Effect of flavonoids was evaluated comparing the T m values in presence and absence of each molecule.

SMILES | Inhibition of disulfide reductase (redox) activity (PDIA3 [1]) | Effect on disulfide reductase activity (in words) (PDIA3 [1]) | Effect on DNA binding activity of PDIA3 (PDIA3 [2]) | Inhibition of disulfide reductase (redox) activity (PDIA3 [1]; listed as eupatorin) | Effect on PDIA3 stability (T m) (PDIA3 [3])
COc1ccc(-c2cc(=O)c3c(OC)c(OC)c(OC)cc3o2)cc1O [Eupatorin-5-methyl ether, eupatorin-5-methyl-ether] | up to 40% | noticeable inhibitory effect | did not significantly affect | – | –
COc1ccc(-c2cc(=O)c3c(O)c(OC)c(OC)cc3o2)cc1O [Eupatorin, eupatorin] | 40% | noticeable inhibitory effect | did not significantly affect and None | up to 40% | –
O=c1cc(-c2ccc(O)cc2)oc2cc(O)cc(O)c12 [Apigenin, apigenin] | – | no evident effect | – | – | similar, but less pronounced, effect

From PMC5164911, “Comparative Analysis of the Interaction between Different Flavonoids and PDIA3” (Oxidative Medicine and Cellular Longevity, 2016)
